We go through 15 molecules from patent publication US10506810B2, “Synergistic herbicidal composition” (QINGDAO KINGAGROOT RESISTANT WEED MANAGEMENT CO., LTD., priority 2015, dated 2019).

SMILES strings stand for the structures. Read-outs that look alike come from different tables or passages of the source.

Experiment [1] concerns Capsella bursa-pastoris. Description: pot-culture method, stem and leaf treatment in greenhouse, fresh weight inhibition rate 20 days after treatment (Gowing method). It is filed as in vivo. On the procedure: (§1) Capsella bursa-pastoris, Myosoton aquaticum, Alopecurus japonicus were collected from corn fields in Huangdao Experimental Base of Shandong Province.
(§2) The above weeds were cultivated by a pot culture method. […] Full and uniform weed seeds were selected, soaked in warm water at 25° C. for 6 hours, and germinated in a 28° C. biochemical incubator (darkness). […] A certain amount of water was added to the enamel pan regularly to keep the soil moist.
(§3) The technical materials were all dissolved in acetone, and diluted with an aqueous solution containing 0.1% emulsifier T-80. The dilution is performed as required.
(§4) A ratio of the active ingredient A to the active ingredient B and amounts thereof in each group depends on the characteristics and toxicity of the two agents, as well as the main application purpose of a corresponding formulation. Based on the pre-tests in this study, the dosage of the active ingredient A and the active ingredient B applied alone and in combination were shown in the tables, and a total 15 groups were designed. Water containing the solvent and emulsifier same with the above groups but free of the agents was used as a blank control.
(§5) 3 pots with 20 weed seeds per pot were treated in one treatment with […] per treatment, that is, a total of 60 weeds were treated in one treatment.
(§6) The agents were used for only once in the experiment. In the stage of weeds with 2 leaves and 1 core, the weeds were thinned out to maintain 15 weeds per pot and 45 weeds for each treatment, then continued to be cultured to 3-5-leaves stage of Capsella bursa-pastoris and Myosoton aquaticum, and 3-leaves and 1-core stage of Alopecurus japonicus, and treated.
(§7) The well-cultured weeds were evenly placed on a platform with an area of 0.5 m^2, and a solution of agents was sprayed on the stems and leaves thereof by the 3WP-2000-type walking spray tower at a dosage of 30 kg/ha and at a spray pressure of 0.3 MPa. After all the solution was sprayed, the valve was closed. After 30 seconds, the door of the spray tower was opened, and the nutritional bowl was taken out. Then the valve was opened, and the spray tube was cleaned by spraying 50 ml of water.
(§8) A pot-culture method was employed. For the cultivation of weeds, please refer to the Section 1.2, and “Pesticide guidelines for laboratory bioactivity tests—herbicides”. As to a method for applying agents, please refer to the section 2.3.2, that is, a method for treating stems and leaves was employed.
(§9) A method for investigating absolute number was employed, wherein whole seedlings of survival weeds were cut off with a blade along the soil surface, and the fresh weight of the weeds was weighed with an analytical balance. For dead weeds, the fresh weight thereof was zero.
(§10) The investigation was performed after 20 days of the treatment for only once.
(§11) Wherein, in the formula, X represented the fresh weight inhibition rate of the active ingredient A in a dosage of P, and Y represented the fresh weight inhibition rate of the active ingredient B in a dosage of Q.

Experiment [2] relates to Myosoton aquaticum. Described as above. It is filed as in vivo. As for the experimental part:
as §1, §2, §3, §4, §5, §6, §7, §8, §9, §10, §11

Setting [3] is: Capsella bursa-pastoris, 480 h, read-out: actual fresh weight inhibition rate.
The mark [4] stands for this setting: Myosoton aquaticum, 480 h, read-out: actual fresh weight inhibition rate.

Take `CC(C)CCCCCOC(=O)COc1ccc(Cl)cc1Cl` [2,4-D isooctyl ester, reference compound]: the “actual fresh weight inhibition rate (%)” value in experiment [1] (dosage 200 g/hm^2) is given as 21.1%; in experiment [1] (dosage 350 g/hm^2) it was 34.2%; in experiment [1] (dosage 500 g/hm^2), 55.9%; in experiment [2] (dosage 200 g/hm^2), 15.4%; in experiment [2] (dosage 350 g/hm^2), 26.3%; in experiment [2] (dosage 500 g/hm^2), 47.9%.

On to `CCCCOC(=O)COc1ccc(Cl)cc1Cl` [2,4-butyl ester, 2,4-D butyl ester, reference compound], for which the “actual fresh weight inhibition rate (%)” value in experiment [1] (dosage 200 g/hm^2) is 23.4%; in experiment [1] (dosage 350 g/hm^2), 42.9%; in experiment [1] (dosage 500 g/hm^2), 55.6%; in experiment [2] (dosage 200 g/hm^2), 18.4%; in experiment [2] (dosage 350 g/hm^2), 29.8%; in experiment [2] (dosage 500 g/hm^2), 49.3%.

In the case of `N#Cc1cc(Br)c(O)c(Br)c1` [Bromoxynil], the pest or weed control at 240 g/ha came to 40.6% in experiment [1] (Capsella bursa-pastoris, 480 h, dosage 240 g/hm^2, read-out: actual fresh weight inhibition rate) and 30.5% in experiment [2] (Myosoton aquaticum, 480 h, dosage 240 g/hm^2, read-out: actual fresh weight inhibition rate). Besides, the pest or weed control at 360 g/ha in experiment [1] (Capsella bursa-pastoris, 480 h, dosage 360 g/hm^2, read-out: actual fresh weight inhibition rate) worked out at 58.5%; in experiment [2] (Myosoton aquaticum, 480 h, dosage 360 g/hm^2, read-out: actual fresh weight inhibition rate) it was 38.7%. For the same molecule, the pest or weed control at 480 g/ha amounted to 81.3% in experiment [1] (Capsella bursa-pastoris, 480 h, dosage 480 g/hm^2, read-out: actual fresh weight inhibition rate) and 47.9% in experiment [2] (Myosoton aquaticum, 480 h, dosage 480 g/hm^2, read-out: actual fresh weight inhibition rate).

`Cc1cc(Cl)ccc1OCC(=O)O` [MCPA, 2-methyl-4-chlorophenoxy acetic acid, reference compound]: the “actual fresh weight inhibition rate (%)” value came out at 33.2% in experiment [1] (dosage 300 g/hm^2); 41.7% in experiment [1] (dosage 600 g/hm^2); 60.5% in experiment [1] (dosage 900 g/hm^2); 23.8% in experiment [2] (dosage 300 g/hm^2); 35.6% in experiment [2] (dosage 600 g/hm^2); 45.8% in experiment [2] (dosage 900 g/hm^2).

For the molecule `Cc1cc(Cl)ccc1OCC(=O)[O-].[Na+]` [MCPA-Na, reference compound], the “actual fresh weight inhibition rate (%)” value is 22.1% in experiment [1] (dosage 400 g/hm^2); 38.3% in experiment [1] (dosage 800 g/hm^2); 56.7% in experiment [1] (dosage 1200 g/hm^2); 24.8% in experiment [2] (dosage 400 g/hm^2); 36.9% in experiment [2] (dosage 800 g/hm^2); 50.9% in experiment [2] (dosage 1200 g/hm^2).

Regarding `Cc1cc(Cl)ccc1OCC(=O)OCCCCCC(C)C` [MCPA-isooctyl, reference compound], the “actual fresh weight inhibition rate (%)” value in experiment [1] (dosage 600 g/hm^2) is listed as 33.2%; in experiment [1] (dosage 1200 g/hm^2), 41.7%; in experiment [1] (dosage 1800 g/hm^2) it was 60.5%; in experiment [2] (dosage 600 g/hm^2), 23.8%; in experiment [2] (dosage 1200 g/hm^2) it was 35.6%; in experiment [2] (dosage 1800 g/hm^2), 45.8%.

For `CC(C)N1C(=O)c2ccccc2NS1(=O)=O` [bentazon], the pest or weed control at 500 g/ha in experiment [1] (480 h, Capsella bursa-pastoris, 500 g/hm^2, read-out: actual fresh weight inhibition rate) is 38.5%; in experiment [2] (Myosoton aquaticum, 480 h, Myosoton aquaticum, 500 g/hm^2, read-out: actual fresh weight inhibition rate), 33.4%. In addition, the pest or weed control at 750 g/ha in experiment [1] (480 h, Capsella bursa-pastoris, 750 g/hm^2, read-out: actual fresh weight inhibition rate) stood at 58.2%; in experiment [2] (Myosoton aquaticum, 480 h, Myosoton aquaticum, 750 g/hm^2, read-out: actual fresh weight inhibition rate) it was 46.2%. In addition, the pest or weed control at 1000 g/ha was found to be 73.1% in experiment [1] (480 h, Capsella bursa-pastoris, 1000 g/hm^2, read-out: actual fresh weight inhibition rate) and 58.7% in experiment [2] (Myosoton aquaticum, 480 h, Myosoton aquaticum, 1000 g/hm^2, read-out: actual fresh weight inhibition rate).

Turning to `CCCCCCCC(=O)Oc1c(Br)cc(C#N)cc1Br` [bromoxynil octanoate], the pest or weed control at 190 g/ha in experiment [1] (Capsella bursa-pastoris, 480 h, dosage 190 g/hm^2, read-out: actual fresh weight inhibition rate) came to 42.7%; in experiment [2] (Myosoton aquaticum, 480 h, dosage 190 g/hm^2, read-out: actual fresh weight inhibition rate), 25.8%. For the same molecule, the pest or weed control at 375 g/ha in experiment [1] (Capsella bursa-pastoris, 480 h, dosage 375 g/hm^2, read-out: actual fresh weight inhibition rate) came out at 55.7%; in experiment [2] (Myosoton aquaticum, 480 h, dosage 375 g/hm^2, read-out: actual fresh weight inhibition rate), 38.5%. In addition, the pest or weed control at 560 g/ha was determined as 78.6% in experiment [1] (Capsella bursa-pastoris, 480 h, dosage 560 g/hm^2, read-out: actual fresh weight inhibition rate) and 57.3% in experiment [2] (Myosoton aquaticum, 480 h, dosage 560 g/hm^2, read-out: actual fresh weight inhibition rate).

Take `Cc1nn(-c2cc(CC(Cl)C(=O)O)c(Cl)cc2F)c(=O)n1C(F)F` (stereo not shown) [carfentrazone, reference compound]: the “actual fresh weight inhibition rate (%)” value in experiment [1] (dosage 12 g/hm^2) turned out to be 55.2%; in experiment [1] (dosage 24 g/hm^2), 71.3%; in experiment [1] (dosage 36 g/hm^2), 80.5%; in experiment [2] (dosage 12 g/hm^2) it was 32.1%; in experiment [2] (dosage 24 g/hm^2), 45.8%; in experiment [2] (dosage 36 g/hm^2) it was 60.1%.

Regarding `Cc1ccc(NC(=O)N(C)C)cc1Cl` [chlorotoluron], the pest or weed control at 1500 g/ha came out at 33.5% in experiment [1] (Capsella bursa-pastoris, 480 h, dosage 1500 g/hm^2, read-out: actual fresh weight inhibition rate) and 34.7% in experiment [2] (Myosoton aquaticum, 480 h, dosage 1500 g/hm^2, read-out: actual fresh weight inhibition rate). The pest or weed control at 2250 g/ha in experiment [1] (Capsella bursa-pastoris, 480 h, dosage 2250 g/hm^2, read-out: actual fresh weight inhibition rate) amounted to 43.7%; in experiment [2] (Myosoton aquaticum, 480 h, dosage 2250 g/hm^2, read-out: actual fresh weight inhibition rate), 43.8%. Moreover, the pest or weed control at 3000 g/ha in experiment [1] (Capsella bursa-pastoris, 480 h, dosage 3000 g/hm^2, read-out: actual fresh weight inhibition rate) stood at 57.3%; in experiment [2] (Myosoton aquaticum, 480 h, dosage 3000 g/hm^2, read-out: actual fresh weight inhibition rate) it was 60.1%.

Take `O=C(Nc1ccc(F)cc1F)c1cccnc1Oc1cccc(C(F)(F)F)c1` [diflufenican]: the pest or weed control at 40 g/ha in experiment [1] (480 h, Capsella bursa-pastoris, 40 g/hm^2, read-out: actual fresh weight inhibition rate) came to 33.1%; in experiment [2] (Myosoton aquaticum, 480 h, Myosoton aquaticum, 40 g/hm^2, read-out: actual fresh weight inhibition rate), 24.1%. The pest or weed control at 80 g/ha was found to be 48.2% in experiment [1] (480 h, Capsella bursa-pastoris, 80 g/hm^2, read-out: actual fresh weight inhibition rate) and 46.2% in experiment [2] (Myosoton aquaticum, 480 h, Myosoton aquaticum, 80 g/hm^2, read-out: actual fresh weight inhibition rate). For the same molecule, the pest or weed control at 120 g/ha in experiment [1] (480 h, Capsella bursa-pastoris, 120 g/hm^2, read-out: actual fresh weight inhibition rate) came out at 63.4%; in experiment [2] (Myosoton aquaticum, 480 h, Myosoton aquaticum, 120 g/hm^2, read-out: actual fresh weight inhibition rate), 66.5%.

Take `CN(C)C(=O)SCCCCOc1ccccc1` [fenothiocarb]: in experiment [1] (setting [3]), the pest or weed control at 40 g/ha came out at 0%, the pest or weed control at 65 g/ha was 0% and the pest or weed control at 90 g/ha worked out at 0%. Further, in experiment [2] (setting [4]), the pest or weed control at 40 g/ha was found to be 70.3%, the pest or weed control at 65 g/ha was 84.5% and the pest or weed control at 90 g/ha came out at 97.3%.

For the molecule `COc1ncc(F)c2nc(S(=O)(=O)Nc3c(F)cccc3F)nn12` [florasulam], the “actual fresh weight inhibition rate” value stood at 45.8% in experiment [1] (Capsella bursa-pastoris, 2.5 g/hm^2); 60.4% in experiment [1] (Capsella bursa-pastoris, 5 g/hm^2); 28.3% in experiment [2] (Myosoton aquaticum, 2.5 g/hm^2); 41.9% in experiment [2] (Myosoton aquaticum, 5 g/hm^2).

Regarding `O=C(O)COC(=O)c1cc(Oc2ccc(C(F)(F)F)cc2Cl)ccc1[N+](=O)[O-]` [fluoroglycofen, reference compound], the “actual fresh weight inhibition rate (%)” value in experiment [1] (dosage 5 g/hm^2) stood at 47.4%; in experiment [1] (dosage 10 g/hm^2), 61.6%; in experiment [1] (dosage 15 g/hm^2) it was 70.5%; in experiment [2] (dosage 5 g/hm^2) it was 37.9%; in experiment [2] (dosage 10 g/hm^2), 41.8%; in experiment [2] (dosage 15 g/hm^2), 55.4%.

For `Nc1c(Cl)c(F)nc(OCC(=O)O)c1Cl` [fluroxypyr, reference compound], the “actual fresh weight inhibition rate (%)” value in experiment [1] (dosage 100 g/hm^2) is listed as 10.1%; in experiment [1] (dosage 150 g/hm^2) it was 18.3%; in experiment [1] (dosage 200 g/hm^2), 28.7%; in experiment [2] (dosage 100 g/hm^2), 90.1%; in experiment [2] (dosage 150 g/hm^2), 100%; in experiment [2] (dosage 200 g/hm^2) it was 100%.
